Test results: patent US10294202B2, “Pyrrolidinones as herbicides” (FMC Corporation, priority 2013, dated 2019)

Experiments:
wheat = test: Test A pre-/postemergence herbicide test; type: in vivo, Triticum aestivum; conditions: for Wheat plant response rating: Preemergence, visual rating on 0 to 100 scale (0 no effect, 100 complete control)
Method in brief: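 Directed soil spray to seeded pots (preemergence) or spray onto one- to two-leaf seedlings 2–10 cm tall (postemergence); loam/sand substrate throughout. Evaluated visually after about 10 days against untreated plants, 0 = no effect, 100 = complete control.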

wheat (winter wheat) = test: Test C pre-/postemergence herbicide test; type: in vivo, Triticum aestivum
Description: (§1) Seeds of plant species selected from blackgrass (Alopecurus myosuroides), ryegrass, Italian (Italian ryegrass, Lolium multiflorum), wheat (winter wheat, Triticum aestivum), galium (catchweed bedstraw, Galium aparine), corn (Zea mays), crabgrass, large (large crabgrass, Digitaria sanguinalis), foxtail, giant (giant foxtail, Setaria faberii), johnsongrass (Sorghum halepense), lambsquarters (Chenopodium album), morningglory (Ipomoea coccinea), nutsedge, yellow (yellow nutsedge, Cyperus esculentus), pigweed (Amaranthus retroflexus), ragweed (common ragweed, Ambrosia elatior), soybean (Glycine max), barnyardgrass (Echinochloa crus-galli), oilseed rape (Brassica napus), waterhemp (common waterhemp, Amaranthus rudis), kochia (Kochia scoparia), oat, wild (wild oat, Avena fatua), surinam grass (Brachiaria decumbens), foxtail, green (green foxtail, Setaria viridis), goosegrass (Eleusine indica), bromegrass, downy (downy bromegrass, Bromus tectorum), nightshade (eastern black nightshade, Solanum ptycanthum), cocklebur (common cocklebur, Xanthium strumarium), cupgrass, woolly (woolly cupgrass, Eriochloa villosa), bermudagrass (Cynodon dactylon), sunflower, (common oilseed sunflower, Helianthus annuus), Russian thistle (Salsola kali) and velvetleaf (Abutilon theophrasti) were planted into a blend of loam soil and sand and treated preemergence with test chemicals formulated in a non-phytotoxic solvent mixture which included a surfactant. At the same time, plants selected from these crop and weed species and also barley (winter barley, Hordeum vulgare), […]), chickweed (common chickweed, Stellaria media), deadnettle (henbit deadnettle, Lamium amplexicaule), and canarygrass (littleseed canarygrass, Phalaris minor) were planted in pots containing Redi-Earth® planting medium (Scotts Company, 14111 Scottslawn Road, Marysville, Ohio 43041) comprising spaghnum peat moss, vermiculite, wetting agent and starter nutrients and treated with postemergence applications of test chemicals formulated in the same manner. Plants ranged in height from 2 to 18 cm (1- to 4-leaf stage) for postemergence treatments. Treated plants and controls were maintained in a greenhouse for 13 to 15 days, after which time all species were compared to controls and visually evaluated. Plant response ratings, summarized in Table C, are based on a scale of 0 to 100 where 0 is no effect and 100 is complete control. A dash (-) response means no test result.

morningglory = test: Test C pre-/postemergence herbicide test; type: in vivo, Ipomoea coccinea
Description: as §1

galium = test: Test C pre-/postemergence herbicide test; type: in vivo, Galium aparine
Description: as §1

pigweed = test: Test C pre-/postemergence herbicide test; type: in vivo, Amaranthus retroflexus
Description: as §1

johnsongrass = test: Test C pre-/postemergence herbicide test; type: in vivo, Sorghum halepense
Description: as §1

crabgrass, large = test: Test C pre-/postemergence herbicide test; type: in vivo, Digitaria sanguinalis
Description: as §1

blackgrass = test: Test C pre-/postemergence herbicide test; type: in vivo, Alopecurus myosuroides
Description: as §1

lambsquarters = test: Test C pre-/postemergence herbicide test; type: in vivo, Chenopodium album
Description: as §1

waterhemp = test: Test C pre-/postemergence herbicide test; type: in vivo, Amaranthus rudis
Description: as §1

[1] = Postemergence, 500 g ai/ha, 0 to 100 scale (0 no effect, 100 complete control)
[2] = preemergence, 500 g ai/ha, 0 to 100 scale
[3] = Postemergence, 125 g ai/ha, 0 to 100 scale, 0 no effect, 100 complete control
[4] = Preemergence, 62 g ai/ha, scale 0 to 100
[5] = Preemergence, 125 g ai/ha, scale 0 to 100 (0 no effect, 100 complete control)
[6] = Preemergence, 31 g ai/ha, scale 0 to 100 (0 no effect, 100 complete control)
[7] = Preemergence, 31 g ai/ha, scale 0 to 100, 0 is no effect and 100 is complete control
[8] = Preemergence, 62 g ai/ha, scale 0 to 100 (0 no effect, 100 complete control)
[9] = Preemergence, 16 g ai/ha, scale 0 to 100
[10] = Postemergence, 125 g ai/ha, 0 to 100 scale, 0 is no effect, 100 is complete control
[11] = Postemergence, 31 g ai/ha, scale 0 to 100 (0 no effect, 100 complete control)
[12] = Postemergence, 62 g ai/ha, scale 0 (no effect) to 100 (complete control)
[13] = Postemergence, 125 g ai/ha, scale 0 to 100 (0 no effect, 100 complete control)
[14] = Postemergence, 250 g ai/ha, scale 0 to 100 (0 no effect, 100 complete control)

O=C1NCC(c2cccc(C(F)(F)F)c2)C1C(=O)Nc1ccccc1F (racemic) [Compound 3]
Plant response rating, Wheat (wheat; [1]): 50 | Wheat plant response rating (wheat; 125 g ai/ha): 40 | Plant response rating, Wheat (wheat; [2]): 60

O=C1NCC(c2ccc(F)c(F)c2)C1C(=O)Nc1cccc(F)c1 (racemic) [Compound 12]
Plant response rating, Wheat (wheat; [3]): 0 | Plant response rating, Wheat (wheat; [1]): 20 | Wheat plant response rating (wheat; 125 g ai/ha): 0 | Plant response rating, Wheat (wheat; [2]): 20

O=C1NCC(c2ccc(F)cc2)C1C(=O)Nc1ccccc1F (racemic) [Compound 16]
Plant response rating, Wheat (wheat (winter wheat); [4]): 0 | Plant response rating, Wheat (wheat (winter wheat); [5]): 0 | Plant response rating, Morningglory (morningglory; [4]): 0 | Plant response rating, Morningglory (morningglory; [5]): 0 | Galium plant response rating (galium; [6]): 0 | Plant response rating, Galium (galium; [4]): 0 | Plant response rating, Pigweed (pigweed; [4]): 0 | Plant response rating, Pigweed (pigweed; [5]): 0 | Plant response rating, Johnsongrass (johnsongrass; [4]): 0 | Plant response rating, Johnsongrass (johnsongrass; [5]): 0 | Crabgrass, Large plant response rating (crabgrass, large; [6]): 95 | Plant response rating, Crabgrass, Large (crabgrass, large; [4]): 95 | Plant response rating, Crabgrass, Large (crabgrass, large; [5]): 100 | Plant response rating, Crabgrass, Large (crabgrass, large; Preemergence, 250 g ai/ha, scale 0 to 100 (0 no effect, 100 complete control)): 100 | Blackgrass plant response rating (blackgrass; [6]): 0 | Plant response rating, Blackgrass (blackgrass; [4]): 5 | Plant response rating, Blackgrass (blackgrass; [5]): 10 | Plant response rating, Wheat (wheat; [3]): 20 | Plant response rating, Wheat (wheat; [1]): 50 | Wheat plant response rating (wheat; 125 g ai/ha): 0 | Plant response rating, Wheat (wheat; [2]): 0

O=C1NCC(c2cccc(C(F)(F)F)c2)C1C(=O)Nc1ccccc1Cl (racemic) [Compound 189]
Wheat plant response rating (wheat (winter wheat); [7]): 0 | Wheat plant response rating (wheat (winter wheat); [8]): 0 | Plant response rating, Wheat (wheat (winter wheat); [5]): 0 | Plant response rating, Wheat (wheat (winter wheat); [9]): 0 | Morningglory plant response rating (morningglory; [7]): 0 | Morningglory plant response rating (morningglory; [8]): 0 | Plant response rating, Morningglory (morningglory; [5]): 0 | Plant response rating, Morningglory (morningglory; [9]): 0 | Galium plant response rating (galium; [7]): 0 | Galium plant response rating (galium; [8]): 0 | Plant response rating, Galium (galium; [5]): 80 | Plant response rating, Galium (galium; [9]): 0 | Pigweed plant response rating (pigweed; [7]): 0 | Pigweed plant response rating (pigweed; [8]): 0 | Plant response rating, Pigweed (pigweed; [5]): 0 | Plant response rating, Pigweed (pigweed; [9]): 0 | Johnsongrass plant response rating (johnsongrass; [7]): 0 | Johnsongrass plant response rating (johnsongrass; [8]): 0 | Plant response rating, Johnsongrass (johnsongrass; [5]): 15 | Plant response rating, Johnsongrass (johnsongrass; [9]): 0 | Crabgrass, Large plant response rating (crabgrass, large; [7]): 95 | Crabgrass, Large plant response rating (crabgrass, large; [8]): 95 | Plant response rating, Crabgrass, Large (crabgrass, large; [5]): 98 | Plant response rating, Crabgrass, Large (crabgrass, large; [9]): 90 | Lambsquarters plant response rating (lambsquarters; [7]): 0 | Lambsquarters plant response rating (lambsquarters; [8]): 0 | Plant response rating, Lambsquarters (lambsquarters; [5]): 5 | Plant response rating, Lambsquarters (lambsquarters; [9]): 0 | Blackgrass plant response rating (blackgrass; [7]): 10 | Plant response rating, Blackgrass (blackgrass; [4]): 50 | Plant response rating, Blackgrass (blackgrass; [5]): 55 | Plant response rating, Blackgrass (blackgrass; [9]): 0 | Waterhemp plant response rating (waterhemp; [7]): 0 | Waterhemp plant response rating (waterhemp; [8]): 5 | Plant response rating, Waterhemp (waterhemp; [5]): 0 | Plant response rating, Waterhemp (waterhemp; [9]): 0 | Plant response rating, Wheat (wheat; 125 g ai/ha, visual rating, 0 to 100 scale, 0 no effect, 100 complete control, approximately 10 days, preemergence): 0 | Plant response rating, Wheat (wheat; [10]): 0 | Wheat plant response rating (0 to 100 scale, 0 is no effect, 100 is complete control) (wheat; Postemergence, 500 g ai/ha): 0 | Plant response rating, Wheat (wheat; preemergence, 500 g ai/ha, 0 to 100 scale, 0 is no effect and 100 is complete control): 20

O=C1NCC(c2cccc(C(F)(F)F)c2)C1C(=O)Nc1ccc(F)cc1F (racemic) [Compound 207]
Plant response rating, Wheat (wheat (winter wheat); [11]): 0 | Plant response rating, Wheat (wheat (winter wheat); [12]): 0 | Plant response rating, Wheat (wheat (winter wheat); [13]): 0 | Plant response rating, Wheat (wheat (winter wheat); [14]): 0 | Wheat plant response rating (wheat (winter wheat); [7]): 0 | Wheat plant response rating (wheat (winter wheat); [8]): 0 | Plant response rating, Wheat (wheat (winter wheat); [5]): 5 | Plant response rating (scale of 0 to 100), Wheat (wheat (winter wheat); Preemergence, 250 g ai/ha): 45 | Plant response rating, Morningglory (morningglory; [11]): 5 | Plant response rating, Morningglory (morningglory; [12]): 5 | Plant response rating, Morningglory (morningglory; [13]): 5 | Plant response rating, Morningglory (morningglory; [14]): 20 | Morningglory plant response rating (morningglory; [7]): 0 | Morningglory plant response rating (morningglory; [8]): 0 | Plant response rating, Morningglory (morningglory; [5]): 0 | Plant response rating (scale of 0 to 100), Morningglory (morningglory; Preemergence, 250 g ai/ha): 0 | Plant response rating, Galium (galium; [11]): 0 | Plant response rating, Galium (galium; [12]): 0 | Plant response rating, Galium (galium; [13]): 0 | Plant response rating, Galium (galium; [14]): 50 | Galium plant response rating (galium; [7]): 0 | Galium plant response rating (galium; [8]): 0 | Plant response rating, Galium (galium; [5]): 85 | Plant response rating (scale of 0 to 100), Galium (galium; Preemergence, 250 g ai/ha): 90 | Plant response rating, Pigweed (pigweed; [11]): 0 | Plant response rating, Pigweed (pigweed; [12]): 10 | Plant response rating, Pigweed (pigweed; [13]): 10 | Plant response rating, Pigweed (pigweed; [14]): 20 | Pigweed plant response rating (pigweed; [7]): 0 | Pigweed plant response rating (pigweed; [8]): 0 | Plant response rating, Pigweed (pigweed; [5]): 0 | Plant response rating (scale of 0 to 100), Pigweed (pigweed; Preemergence, 250 g ai/ha): 0 | Plant response rating, Johnsongrass (johnsongrass; [11]): 0 | Plant response rating, Johnsongrass (johnsongrass; [12]): 0 | Plant response rating, Johnsongrass (johnsongrass; [13]): 0 | Plant response rating, Johnsongrass (johnsongrass; [14]): 0 | Johnsongrass plant response rating (johnsongrass; [7]): 0 | Johnsongrass plant response rating (johnsongrass; [8]): 0 | Plant response rating, Johnsongrass (johnsongrass; [5]): 30 | Plant response rating (scale of 0 to 100), Johnsongrass (johnsongrass; Preemergence, 250 g ai/ha): 60 | Plant response rating, Crabgrass, Large (crabgrass, large; [11]): 10 | Plant response rating, Crabgrass, Large (crabgrass, large; [12]): 15 | Plant response rating, Crabgrass, Large (crabgrass, large; [13]): 40 | Plant response rating, Crabgrass, Large (crabgrass, large; [14]): 65 | Crabgrass, Large plant response rating (crabgrass, large; [7]): 90 | Crabgrass, Large plant response rating (crabgrass, large; [8]): 90 | Plant response rating, Crabgrass, Large (crabgrass, large; [5]): 95 | Plant response rating (scale of 0 to 100), Crabgrass, Large (crabgrass, large; Preemergence, 250 g ai/ha): 95 | Plant response rating, Lambsquarters (lambsquarters; [11]): 0 | Plant response rating, Lambsquarters (lambsquarters; [12]): 10 | Plant response rating, Lambsquarters (lambsquarters; [13]): 35 | Plant response rating, Lambsquarters (lambsquarters; [14]): 15 | Lambsquarters plant response rating (lambsquarters; [7]): 0 | Lambsquarters plant response rating (lambsquarters; [8]): 0 | Plant response rating, Lambsquarters (lambsquarters; [5]): 60 | Plant response rating (scale of 0 to 100), Lambsquarters (lambsquarters; Preemergence, 250 g ai/ha): 70 | Plant response rating, Blackgrass (blackgrass; [11]): 0 | Plant response rating, Blackgrass (blackgrass; [12]): 0 | Plant response rating, Blackgrass (blackgrass; [13]): 0 | Plant response rating, Blackgrass (blackgrass; [14]): 0 | Blackgrass plant response rating (blackgrass; [7]): 0 | Plant response rating, Blackgrass (blackgrass; [4]): 80 | Plant response rating, Blackgrass (blackgrass; [5]): 85 | Plant response rating (scale of 0 to 100), Blackgrass (blackgrass; Preemergence, 250 g ai/ha): 90 | Plant response rating, Waterhemp (waterhemp; [11]): 0 | Plant response rating, Waterhemp (waterhemp; [12]): 0 | Plant response rating, Waterhemp (waterhemp; [13]): 0 | Plant response rating, Waterhemp (waterhemp; [14]): 10 | Waterhemp plant response rating (waterhemp; [7]): 0 | Waterhemp plant response rating (waterhemp; [8]): 0 | Plant response rating, Waterhemp (waterhemp; [5]): 85 | Plant response rating (scale of 0 to 100), Waterhemp (waterhemp; Preemergence, 250 g ai/ha): 75 | Plant response rating, Wheat (wheat; [10]): 0 | Wheat plant response rating (0 to 100 scale, 0 is no effect, 100 is complete control) (wheat; Postemergence, 500 g ai/ha): 60
